According to patent publication US5071636A, “Chelating compounds and their use” (Nihon Medi-Physics Co., Ltd., priority 1987, dated 1991):

How the values were obtained:
[1] = Biodistribution in rabbits: biological half life in the brain by gamma camera imaging; format: in vivo, Japanese white rabbits (male); conditions: for Biological half-life in brain, First phase / Biological half-life in brain, First phase (rate) / Biological half-life in brain, Second phase / Biological half-life in brain, Second phase (rate): rabbit, in vivo; for Accumulation in the cerebral parenchymal cells / biological half life in the brain, first phase / biological half life in the brain, second phase / rate of first phase of biological half life in the brain / rate of second phase of biological half life in the brain: rabbits, Example 10; for Accumulation in the cerebral parenchymal cells: imaging; for biological half life in the brain, first phase / biological half life in the brain, second phase / rate of first phase of biological half life in the brain / rate of second phase of biological half life in the brain: via the carotid artery
Protocol: Japanese white rabbits (male) were anesthetized with a pentobarbital solution (2.5 mg/kg), and Tc-99m(BI-11o) (0.2 ml, […]) was administered via the carotid artery under a gamma camera (GCA-90B, Toshiba Co., Ltd.). Then, imaging of 112 frames (30 seconds/frame) was made in minutes. A region of interest was drawn around brain on images, and the time-activitycurve of the brain was obtained.
It was thus concluded that the above examination procedure was suitable for evaluation of the accumulation in the brain and the disappearance from the brain.
In the same manner as in Example 10 using other technetium-99m-labeled polyaminedithiol compounds instead of Tc-99m-(BI-11o), their biodistribution in rabbits was examined, and their biological half-life in the brain was calculated.

[2] = Thin layer electrophoresis (EP) of technetium-99m-labeled compounds; format: physicochemical; conditions: Table 16, Tc-99m-labeled; 50 mM phosphate buffer pH 7.4, 0.5 mA/cm, room temperature, 15 minutes
Protocol: ZI. Thin layer electrophoresis for Tc-99m-(BI-11c)
An appropriate amount of Tc-99m-(BI-11c) was spotted on an acetylated cellulose membrane and subjected to electrophoresis using 50 mM phosphate buffer (pH, 7.4) as an electrode buffer at a constant current of 0.5 mA/cm and at room temperature for 15 minutes. In the same manner as in ZH, the membrane was scanned to determine the distribution of radioactivity with a thin layer radioachromatoscanner.
In the same manner as in Example 8 ZF, ZG, ZH and ZI but using other polyaminedithiol compounds instead of Compound (11c), preparation of non-radioactive carriers and radioactive diagnostic agents was made. The optimum labeling conditions for the polyaminedithiol compounds were studied. Furthermore, the physical characteristics of the produced technetium-99m-labeled polyaminedithiol compounds were evaluated.

[3] = tested on: normal cerebral parenchymal cells; conditions: in vivo; cited from earlier work

SMILES | Biological half-life in brain, First phase [1] | Biological half-life in brain, First phase (rate) [1] | Biological half-life in brain, Second phase [1] | Biological half-life in brain, Second phase (rate) [1] | EP (Charge) [2] | Accumulation in the cerebral parenchymal cells [1] | biological half life in the brain, first phase [1] | biological half life in the brain, second phase [1] | rate of first phase of biological half life in the brain [1] | rate of second phase of biological half life in the brain [1] | accumulation in normal cerebral parenchymal cells [3]
CCCCCNCC(NCCNCC(C)(C)S)C(C)(C)S (centres unmarked) [Compound 11d, N-(2-Mercapto-2-methylpropyl)-N' -(1-n-amylaminomethyl-2-mercapto-2-methylpropyl)ethylenediamine] | 18 min | 32% | 184 min | 68% | .smallcircle. | – | – | – | – | – | –
CC(C)(S)CNCCNC(CN1CCCCC1)C(C)(C)S (centres unmarked) [Compound 11g, N-(2-Mercapto-2-methylpropyl)-N' -(2-mercapto-2-methyl-1-piperidino-methylpropyl)ethylenediamine] | 5 min | 23% | 60 min | 77% | – | – | – | – | – | – | –
CC(C)(S)CNCCNC(CN1CCNCC1)C(C)(C)S (centres unmarked) [Compound 11h, N-(2-Mercapto-2-methylpropyl)-N'-(2-mercapto-2-methyl-1-piperazinomethylpropyl)ethylenediamine] | 1 min | 44% | 40 min | 56% | – | – | – | – | – | – | –
CN1CCN(CC(NCCNCC(C)(C)S)C(C)(C)S)CC1 (centres unmarked) [Compound 11i, N-(2-Mercapto-2-methylpropyl)-N' -[2-mercapto-2-methyl-1-(4-methyl-piperazino)methylpropyl]ethylene-diamine] | 8 min | 50% | 686 min | 50% | – | – | – | – | – | – | –
CC(C)(S)CNCCNC(CN1CCOCC1)C(C)(C)S (centres unmarked) [Compound 11k, N-(2-Mercapto-2-methylpropyl)-N' -(2-mercapto-2-methyl-1-morpholino-methylpropyl)ethylenediamine] | 4 min | 39% | 21 min | 61% | – | – | – | – | – | – | –
CCCC(C)NCC(NCCNCC(C)(C)S)C(C)(C)S (centres unmarked) [Compound 11l, N-(2-Mercapto-2-methylpropyl)-N' -[1-(1-methylbutylamino)-methyl-2-mercapto-2-methylpropyl]ethylene-diamine] | 11 min | 34% | 132 min | 66% | – | – | – | – | – | – | –
CCCCCCNCC(NCCNCC(C)(C)S)C(C)(C)S (centres unmarked) [Compound 11m, N-(2-Mercapto-2-methylpropyl)-N' -(1-n-hexylaminomethyl-2-mercapto-2-methylpropyl)ethylenediamine] | 3 min | 24% | 58 min | 76% | .smallcircle. | – | – | – | – | – | –
CCCCN(CC)CC(NCCNCC(C)(C)S)C(C)(C)S (centres unmarked) [Compound 11n, N-(2-Mercapto-2-methylpropyl)-N' -[1-(N-butyl-N-ethylamino)-methyl-2-mercapto-2-methylpropyl]ethylenediamine] | 17 min | 42% | 198 min | 58% | – | – | – | – | – | – | –
CC1CCN(CC(NCCNCC(C)(C)S)C(C)(C)S)CC1 (centres unmarked) [Compound 11p, N-(2-Mercapto-2-methylpropyl)-N'-[2-mercapto-2-methyl-1-(4-methylpiperidino)methylpropyl]ethylenediamine] | 3 min | 18% | 83 min | 82% | .smallcircle. | – | – | – | – | – | –
CC(C)(S)CNCCNC(CN1CCCC1)C(C)(C)S (centres unmarked) [Compound 11r, N-(2-Mercapto-2-methylpropyl)-N'-(2-mercapto-2-methyl-1-pyrrolidinomethylpropyl)ethylenediamine] | 3 min | 28% | 36 min | 72% | – | – | – | – | – | – | –
CC(C)(S)CNCCNC(CN1CCN(Cc2ccccc2)CC1)C(C)(C)S (centres unmarked) [Compound 11w, N-(2-Mercapto-2-methylpropyl)-N'-[1-(4-benzylpiperazino)methyl-2-mercapto-2-methylpropyl]ethylenediamine] | 13 min | 60% | 144 min | 40% | .smallcircle. | – | – | – | – | – | –
CC(C)(S)CNCCNC(CN1CCC(c2ccccc2)CC1)C(C)(C)S (centres unmarked) [Compound 11x, N-(2-Mercapto-2-methylpropyl)-N'-[2-mercapto-2-methyl-1-(4-phenylpiperidino)methylpropyl]ethylenediamine] | 10 min | 46% | 150 min | 54% | .smallcircle. | – | – | – | – | – | –
CC(C)(S)C(CNCCN1CCOCC1)NCCNC(CNCCN1CCOCC1)C(C)(C)S (centres unmarked) [Compound 14r, N,N' -Bis[2-mercapto-2-methyl-1-(2-morpholinoethylamino)methylpropyl]-ethylenediamine] | – | – | – | – | .smallcircle. | – | – | – | – | – | –
CC(C)(S)C(CNCCCN1CCOCC1)NCCNC(CNCCCN1CCOCC1)C(C)(C)S (centres unmarked) [Compound 14s, N,N'-Bis[2-mercapto-2-methyl-1-(3-morpholinopropylamino)methyl-propyl]ethylenediamine] | – | – | – | – | .smallcircle. | – | – | – | – | – | –
CCCCSC(C)(C)CNCCNC(CN1CCC(C)CC1)C(C)(C)S (centres unmarked) [Compound 33, N-(2-Butylthio-2-methylpropyl)-N'-[2-mercapto-2-methyl-1-(4-methylpiperidino)methylpropyl]-ethylenediamine] | 7 min | 26% | 148 min | 74% | .smallcircle. | – | – | – | – | – | –
CC(C)NC(C)Cc1ccc([123I])cc1 (centres unmarked) [Compound I-123-IMP, N-isopropyl-2-methyl-p-iodo(I-123)-phenethylamine, reference compound] | – | – | – | – | – | observed | 71 minutes | 98 minutes | 39% | 61% | –
O=C([O-])CN(CCN(CC(=O)[O-])CC(=O)[O-])CCN(CC(=O)[O-])CC(=O)[O-].[99Tc+4] [^99m Tc-DTPA, ^99m Tc-labeled diethylenetriaminepentaacetic acid, reference compound] | – | – | – | – | – | no accumulation was seen | 2 minutes | 18 minutes | 75% | 25% | not accumulating
